± gives the standard deviation of the reports.
Row | SMILES | glass transition temperature [°C]
1 | *c1ccc(Cc2ccc(N3C(=O)C4CCC(C5CCC6C(=O)N(*)C(=O)C6C5)CC4C3=O)cc2)cc1 (repeat unit) | 260.00
2 | *C([2H])([2H])C(*)(C(=O)OC([2H])([2H])[2H])C([2H])([2H])[2H] (repeat unit) | 115.00
3 | *c1ccc(C(Cl)(Cl)C(*)Cl)cc1 (repeat unit) | 160.00
4 | *Nc1cccc(NC(=O)c2cc(NC(=O)C(CCSC)N3C(=O)c4ccccc4C3=O)cc(C(*)=O)c2)c1 (repeat unit) | 196.00
5 | *C1C(=O)OC(=O)C1C1C2CC(COCCC)C(C2)C1* (repeat unit) | 209.00
6 | *C[Si](C)(C)[Si](C)(C)[Si](C)(C)[Si](*)(C)C (repeat unit) | -68.00
7 | *CCCCCCCCCC(=O)N* (repeat unit) [Poly(decano-10-lactam)] | 42.42 ± 0.8
8 | *C(*)C(=O)OC (repeat unit) | 85.8
9 | *Oc1ccc(Oc2ccc(C(=O)Nc3ccc(Cc4ccc(NC(=O)c5ccc(*)cc5)cc4)cc3)cc2)cc1-c1ccccc1 (repeat unit) | 218.00
10 | *Oc1ccc(C(C)(C)c2ccc(OC(*)=O)c(Cl)c2)cc1 (repeat unit) | 146.00
11 | *C1C(*)C2CC1C(C(=O)OCC13CC4CC(CC(C4)C1)C3)C2C(=O)OCC12CC3CC(CC(C3)C1)C2 (repeat unit) | 328.00
12 | *NC(CCC(=O)OCCC)C(*)=O (repeat unit) | -10.00
13 | *CC(*)c1ccc(C(O)CCN2CCOCC2)cc1 (repeat unit) | 50.00
14 | *CC(*)(CC(=O)OCCCC)C(=O)OCCCC (repeat unit) | 24.00
15 | *c1cccc(C(=O)Nc2ccc(Cc3ccc(N4C(=O)c5ccc(S(=O)(=O)c6ccc7c(c6)C(=O)N(c6ccc(Cc8ccc(NC(=O)c9cccc(-c%10nc%11cc(-c%12ccc%13[nH]c(*)nc%13c%12)ccc%11[nH]%10)c9)cc8)cc6)C7=O)cc5C4=O)cc3)cc2)c1 (repeat unit) | 270.00
16 | *Oc1ccc(Nc2ccc(S(=O)(=O)c3ccc(Nc4ccc(Oc5ccc(C(C)(C)c6ccc(*)cc6)cc5)cc4)cc3)cc2)cc1 (repeat unit) | 145.00
17 | *CC(*)(C#N)C(=O)OCCCCCC (repeat unit) [Poly(hexyl cyanoacrylate)] | 85.92 ± 0.1
18 | *CC(*)(CC(=O)OC(C)C)C(=O)OC(C)C (repeat unit) | 100.00
19 | *C([2H])([2H])C(*)([2H])Cl (repeat unit) | 85.00
20 | *Oc1cccc2c(OC3(F)C(*)(F)C(F)(F)C3(F)F)cccc12 (repeat unit) | 138.00
21 | *c1cc(CCOCCOC)c(*)[nH]1 (repeat unit) | -43.00

Continued, values first:

Row | glass transition temperature [°C] | SMILES
22 | 255.00 | *c1ccc(OC(=O)c2ccc([Si](C)(C)c3ccc(C(=O)Oc4ccc(C5(*)c6ccccc6C(=O)N5c5ccccc5)cc4)cc3)cc2)cc1 (repeat unit)
23 | 85.00 | *c1nc(C)nc(N(CCCCN(*)c2ccccc2)c2ccccc2)n1 (repeat unit)
24 | 254.00 | *C(=O)c1ccc2c(c1)C(=O)N(c1cccc(Cc3ccc(C(=O)c4ccc(N5C(=O)c6ccc(*)cc6C5=O)cc4)cc3)c1)C2=O (repeat unit)
25 | 195.00 | *CCCCCC(=O)Nc1ccc(Oc2ccc(NC(=O)CCCCCN3C(=O)c4ccc(C(=O)c5ccc6c(c5)C(=O)N(*)C6=O)cc4C3=O)cc2)cc1 (repeat unit)
26 | 39.00 | *CCCCCCCCCCCNC(=O)CCCCCCCCCCC(=O)N* (repeat unit)
27 | 188.00 | *c1ccc(Oc2cccc(Oc3ccc(N4C(=O)c5ccc(Oc6cccc(Oc7ccc8c(c7)C(=O)N(*)C8=O)c6)cc5C4=O)cc3)c2)cc1 (repeat unit)
28 | 280.20 | *Oc1ccc(S(=O)(=O)c2ccc(Oc3c(C)cc(-c4cc(C)c(*)c(C)c4)cc3C)cc2)cc1 (repeat unit)
29 | 301.00 | *c1ccc2oc(-c3cccc(-c4nc5cc(C(*)(c6ccccc6)C(F)(F)F)ccc5o4)c3)nc2c1 (repeat unit)
30 | 46.00 | */C=C/c1cc(OCCCCCCC)c(/C=C/c2ccc(*)cc2)cc1OCCCCCCC (repeat unit)
31 | -24.2 ± 8.1 | *c1cc(CCCCCCCCCCCC)c(*)s1 (repeat unit)
32 | 313.00 | *C(=O)c1ccc2c(c1)C(=O)N(c1ccc(C(=O)N(C)c3ccc(N4C(=O)c5ccc(*)cc5C4=O)cc3)cc1)C2=O (repeat unit)
33 | 262.00 | *CC(=O)Nc1ccc(Oc2ccc(NC(=O)c3ccc4c(c3)C(=O)N(*)C4=O)cc2)cc1 (repeat unit)
34 | 245.00 | *c1cccc(N2C(=O)c3ccc(Oc4c(C)cc(Cc5cc(C)c(Oc6ccc7c(c6)C(=O)N(*)C7=O)c(C)c5)cc4C)cc3C2=O)c1 (repeat unit)
35 | 280.50 | *C(=O)c1ccc2c(c1)C(=O)N(c1ccc(Oc3cccc(N4C(=O)c5ccc(*)cc5C4=O)c3)cc1)C2=O (repeat unit)
36 | 100.00 | *CC(*)(C)C(=O)OCCCCCCN(C)c1ccc(/N=N/c2ccc(S(C)(=O)=O)cc2)cc1 (repeat unit)
37 | 322.00 | *c1ccc2c(c1)Cc1cc(-n3c(=O)c4cc5c(=O)n(*)c(=O)c5cc4c3=O)ccc1-2 (repeat unit)
38 | 225.00 | */C(=N\c1ccccc1)c1ccc(-c2ccc(*)cc2)cc1 (repeat unit)
39 | 208.00 | *CN1C(=O)c2ccc(C(c3ccc4c(c3)C(=O)N(Cc3nnc(-c5ccc(-c6nnc(*)o6)c(Oc6ccccc6)c5)o3)C4=O)(C(F)(F)F)C(F)(F)F)cc2C1=O (repeat unit)
40 | 80.00 | *Oc1ccc(C(C)(C)c2ccc(Oc3nc(*)nc(Cl)n3)cc2)cc1 (repeat unit)
41 | 31.00 | *c1ccc(-c2cc(CCCCCCCC)c(-c3ccc(-c4ccc(-c5sc(-c6ccc([Si](*)(C)C)s6)cc5CCCCCCCC)s4)s3)s2)s1 (repeat unit)
42 | 128.00 | *Oc1c(Br)cc(C(C)(C)c2cc(Br)c(OC(=O)c3ccc(OCCCCCCCCCCOc4ccc(C(*)=O)cc4)cc3)c(Br)c2)cc1Br (repeat unit)
43 | 163.00 | *CC(*)(C)C(=O)OCc1ccc(/C=C/C(=O)C2c3ccccc3C(=O)c3ccccc32)cc1 (repeat unit)
44 | 305.00 | *c1ccc2c(c1)C(=O)N(c1cccc(C(c3ccccc3)(c3cccc(N4C(=O)c5ccc(C(*)(C(F)(F)F)C(F)(F)F)cc5C4=O)c3)C(F)(F)F)c1)C2=O (repeat unit)
45 | 110.00 | *Oc1cccc(NC(=O)CCCCCCCCCCC(=O)Nc2ccc(*)cc2)c1 (repeat unit)
46 | 152.00 | *Oc1ccc(/C=C/C(=O)c2ccc(Oc3ccc(C(C)(C)c4ccc(*)cc4)cc3)cc2)cc1 (repeat unit)
47 | 155.00 | *C(=O)N1C(=S)N(C(=O)c2ccc3c(c2)C(=O)N(c2ccc(Oc4ccc(N5C(=O)c6ccc(*)cc6C5=O)cc4)cc2)C3=O)C(C)=C(C(=O)OCC)C1c1ccccc1 (repeat unit)

Reference: the PolyMetriX glass transition set
